The text below walks through data of patent US20240300886A1, “ARYLCYCLOHEXYLAMINE DERIVATIVES AND THEIR USE IN THE TREATMENT OF PSYCHIATRIC DISORDERS” (GILGAMESH PHARMACEUTICALS, INC., priority 2021, published 2024).

One may read the microsomal CLint as the capacity of the preparation to metabolise the compound, expressed as a volume cleared per time. Usually Cmax stands for the peak of the concentration-time curve.

Structures are written as SMILES. Read-outs that look alike come from different tables or passages of the source.

Data set [1] can be described thus: Stability in liver microsomes (Example 21), CD-1 mouse. To be noted: male, pH 7.4, CD-1 Mouse liver microsomes, 0.5 mg/mL protein. It is filed as in vitro ADME. The protocol: General Procedure. Briefly, test compounds (final concentration 1 μM) were incubated in duplicate with liver microsomes from male animals of the indicated species (final protein concentration 0.5 mg/mL) in 50 mM sodium phosphate buffer (pH 7.4) with or without NADPH (1 mM). Total incubation volume was 500 μL. At 0, 5, 15, 30, and 60 min, aliquots of 50 μL were withdrawn, quenched with acetonitrile (150 μL), and analyzed for parent compound remaining using a fit-for-purpose LC-MS/MS method. Intrinsic clearance and half-life were calculated. Clearance values below zero were rounded to zero.
Background: Liver microsomes are a subcellular fraction often used to study metabolism.

The nature of data set [2]: Oral bioavailability in rats, Method A (plasma PK). Type of data set: in vivo, Sprague Dawley rats. The following applies: rat plasma. The protocol: Animals. Male Sprague Dawley rats were used in these studies. Animals were randomly assigned to treatment groups and were fasted for 4 h before dosing.
Drugs. Test compounds were dissolved in normal saline and administered intravenously (iv) or orally (po) at a dose of 10 mg/kg (calculated based on freebase) and at a volume of 5 mL/kg body weight. Compounds were tested as the racemates or pure enantiomers, as indicated.
Sample Collection and Bioanalysis. Blood samples were collected under 2,2,2-tribromoethanol anesthesia (150 mg/kg, ip) from the orbital sinus at 0.083, 0.25, 0.5, 1, 2, 4, 8 and 24 h (4 animals per time point) into microcontainers containing K2EDTA. Immediately after collection of blood, rats were euthanized by […]. All samples were immediately processed, flash-frozen, and stored at −70° C. until subsequent analysis. Plasma samples were separated by centrifugation of whole blood and aliquots (50 μL) were mixed with 200 μL of internal standard solution (400 ng/mL in 1:1 v/v CH3CN:MeOH). After mixing by pipetting and centrifuging for 4 min at 6,000 rpm, 0.5 μL of each supernatant was analyzed for drug using a fit-for-purpose liquid chromatography-tandem mass spectrometry (LC-MS/MS) method, with authentic samples of each analyte used for calibration and identification.
Data Analysis. The drug concentrations of samples below the lower limit of quantitation (LLOQ) were designated as zero. Pharmacokinetic data analysis was performed using noncompartmental, bolus injection or extravascular input analysis models in WinNonlin 5.2 (PharSight). Data points below LLOQ were presented as missing to improve validity of t1/2 calculations.

With `CN[C@]1(c2ccc(F)cc2)CCCCC1=O` [Compound 2S, (S)-2-(4-fluorophenyl)-2-(methylamino)cyclohexan-1-one], the microsomal CLint at 1 μM in data set [1] is 3.5 µL/min/mg.
Take `CNC1(c2ccccc2Cl)CCCCC1=O` (racemic) [racemic ketamine, ketamine]: the AUC(0-inf) is 1.35 µg·h/mL in data set [2] (male, Sprague Dawley, 10 mg/kg iv, read-out: AUC0-inf (iv) (converted)) and 0.125 µg·h/mL in data set [2] (male, Sprague Dawley, 10 mg/kg po, read-out: AUC0-inf (po) (converted)). Moreover, the half-life in data set [2] (male, Sprague Dawley, 10 mg/kg iv, read-out: t1/2 (iv)) amounted to 41.6 min; in data set [2] (male, Sprague Dawley, 10 mg/kg po, read-out: t1/2 (po)) it was 33.7 min. This compound also gave a Cmax in data set [2] (male, Sprague Dawley, 10 mg/kg po) of 0.19 µg/mL. Besides, in data set [2] (10 mg/kg), the F turned out to be 9.07%.
